Molecular target: T1, human GPR40 (Homo sapiens, UniProt O14842)
T1 construct: expressed in transfected cells; host or cells: CHO-K1
Assay: Induction of Ca2+ (calcium flux assay) using human GPR40 expression cell line
Assay type: cell-based
Details: read-out: EC0.5
In short: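 CHO-K1 cells stably transfected with human GPR40, plated 24 h, loaded 1 h at 37° C with Calcium 5 dye in HBSS/HEPES pH 7.4. Intracellular calcium change after compound addition read on FlexStation; concentration–response of relative activity used to derive EC0.5.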

T1 sequence (O14842 whole entry): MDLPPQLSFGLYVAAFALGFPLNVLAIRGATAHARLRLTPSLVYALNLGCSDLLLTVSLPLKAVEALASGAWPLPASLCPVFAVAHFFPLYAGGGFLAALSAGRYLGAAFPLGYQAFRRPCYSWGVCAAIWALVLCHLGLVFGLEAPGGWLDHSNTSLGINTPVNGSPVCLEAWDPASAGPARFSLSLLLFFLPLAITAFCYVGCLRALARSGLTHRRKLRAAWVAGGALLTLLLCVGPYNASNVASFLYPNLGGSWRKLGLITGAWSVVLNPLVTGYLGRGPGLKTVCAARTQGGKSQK

EC50	Structure (SMILES)
1 to 50 nM	CC#C[C@@H](CC(=O)O)c1ccc(OCc2ccc3c(cnn3C(C)C)c2)cc1 [Example 116, (S)-3-[4-(1-isopropyl-1H-indazol-5-ylmethoxy)-phenyl]-hex-4-ynoic acid]
50 nM	CC(CC(=O)O)c1ccc(OCc2ccc3cnn(Cc4ccccc4)c3c2)cc1 (stereo not shown) [Example 117, 3-[4-(1-benzyl-1H-indazol-6-ylmethoxy)-phenyl]-butyric acid]
200 nM	O=C(O)CC1CCc2cc(OCc3ccc4c(cnn4Cc4ccccc4)c3)ccc21 (stereo not shown) [Example 118, [5-(1-benzyl-1H-indazol-5-ylmethoxy)-indan-1-yl]-acetic acid]
60 nM	O=C(O)CC1CCCc2cc(OCc3ccc4c(cnn4Cc4ccccc4)c3)ccc21 (stereo not shown) [Example 119, [6-(1-benzyl-1H-indazol-5-ylmethoxy)-1,2,3,4-tetrahydro-naphthalen-1-yl]-acetic acid]
40 nM	O=C(O)CC1CCOc2cc(OCc3ccc4c(cnn4Cc4ccccc4)c3)ccc21 (stereo not shown) [Example 120, [7-(1-benzyl-1H-indazol-5-ylmethoxy)-chroman-4-yl]-acetic acid]
300 nM	O=C(O)CC1COc2cc(OCc3ccc4ccn(Cc5ccccc5)c4n3)ccc21 (stereo not shown) [Example 121, [6-(1-benzyl-1H-pyrrolo[2,3-b]pyridin-6-ylmethoxy)-2,3-dihydro-benzofuran-3-yl]-acetic acid]
1 to 50 nM	CC#C[C@@H](CC(=O)O)c1ccc(OCc2cc3c(cnn3Cc3ccccc3)cc2F)cc1 [Example 122, (S)-3-[4-(1-benzyl-5-fluoro-1H-indazol-6-ylmethoxy)-phenyl]-hex-4-ynoic acid]
1 to 50 nM	CC#C[C@@H](CC(=O)O)c1ccc(OCc2ccc3c(ccn3Cc3ccccc3)c2)cc1 [Example 123, (S)-3-[4-(1-benzyl-1H-indol-5-ylmethoxy)-phenyl]-hex-4-ynoic acid]
50 nM	CC#C[C@@H](CC(=O)O)c1ccc(OCc2ccc3c(c2)nnn3Cc2ccccc2)cc1 [Example 124, (S)-3-[4-(1-benzyl-1H-benzotriazol-5-ylmethoxy)-phenyl]-hex-4-ynoic acid]
20 nM	CC#C[C@@H](CC(=O)O)c1ccc(OCc2ccc3c(c2)ncn3Cc2ccccc2)cc1 [Example 125, (S)-3-[4-(1-benzyl-1H-benzoimidazol-5-ylmethoxy)-phenyl]-hex-4-ynoic acid]
1 to 50 nM	CC#C[C@@H](CC(=O)O)c1ccc(OCc2cc(C)c3c(cnn3Cc3ccccc3)c2)cc1 [Example 126, (S)-3-[4-(1-benzyl-7-methyl-1H-indazol-5-ylmethoxy)-phenyl]-hex-4-ynoic acid]
1 to 50 nM	CC#C[C@@H](CC(=O)O)c1ccc(OCc2cc(C)c3nn(Cc4ccccc4)cc3c2)cc1 [Example 127, (S)-3-[4-(2-benzyl-7-methyl-2H-indazol-5-ylmethoxy)-phenyl]-hex-4-ynoic acid]
50 to 500 nM	Cc1cc(COc2ccc3c(c2)OCC3CC(=O)O)cc2cnn(Cc3ccccc3)c12 (stereo not shown) [Example 128, [6-(1-benzyl-7-methyl-1H-indazol-5-ylmethoxy)-2,3-dihydro-benzofuran-3-yl]-acetic acid]
80 nM	Cc1cc(COc2ccc3c(c2)OCCC3CC(=O)O)cc2cnn(Cc3ccccc3)c12 (stereo not shown) [Example 129, [7-(1-benzyl-7-methyl-1H-indazol-5-ylmethoxy)-chroman-4-yl]-acetic acid]
1 to 50 nM	CC#C[C@@H](CC(=O)O)c1ccc(OCc2cc(C)c3c(cnn3CC(C)C)c2)cc1 [Example 130, (S)-3-[4-(1-isobutyl-7-methyl-1H-indazol-5-ylmethoxy)-phenyl]-hex-4-ynoic acid]
50 to 500 nM	Cc1cc(COc2ccc3c(c2)OCCC3CC(=O)O)cc2cnn(CC(C)C)c12 (stereo not shown) [Example 131, [7-(1-isobutyl-7-methyl-1H-indazol-5-ylmethoxy)-chroman-4-yl]-acetic acid]

EC50	Structure (SMILES)
1 to 50 nM	CC#C[C@@H](CC(=O)O)c1ccc(OCc2ccc3c(cnn3CC(C)C)c2)cc1 [Example 132, (S)-3-[4-(1-isobutyl-1H-indazol-5-ylmethoxy)-phenyl]-hex-4-ynoic acid]
400 nM	CC(C)Cn1ncc2cc(COc3ccc4c(c3)OCCC4CC(=O)O)ccc21 (stereo not shown) [Example 133, [7-(1-isobutyl-1H-indazol-5-ylmethoxy)-chroman-4-yl]-acetic acid]
4 nM	CC#C[C@@H](CC(=O)O)c1ccc(OCc2ccc3c(cnn3CCc3ccccc3)c2)cc1 [Example 134, (S)-3-[4-(1-phenethyl-1H-indazol-5-ylmethoxy)-phenyl]-hex-4-ynoic acid]
200 nM	O=C(O)CC1CCOc2cc(OCc3ccc4c(cnn4CCc4ccccc4)c3)ccc21 (stereo not shown) [Example 135, [7-(1-phenethyl-1H-indazol-5-ylmethoxy)-chroman-4-yl]-acetic acid]
1 to 50 nM	CC#C[C@@H](CC(=O)O)c1ccc(OCc2ccc3c(cnn3CCC(C)C)c2)cc1 [Example 136, (S)-3-{4-[1-(3-methyl-butyl)-1H-indazol-5-ylmethoxy]-phenyl}-hex-4-ynoic acid]
50 to 500 nM	CC(C)CCn1ncc2cc(COc3ccc4c(c3)OCCC4CC(=O)O)ccc21 (stereo not shown) [Example 137, {7-[1-(3-methyl-butyl)-1H-indazol-5-ylmethoxy]-chroman-4-yl}-acetic acid]
10 nM	CC#C[C@@H](CC(=O)O)c1ccc(OCc2ccc3c(cnn3CC3CCCCC3)c2)cc1 [Example 138, (S)-3-[4-(1-cyclohexylmethyl-1H-indazol-5-ylmethoxy)-phenyl]-hex-4-ynoic acid]
300 nM	O=C(O)CC1CCOc2cc(OCc3ccc4c(cnn4CC4CCCCC4)c3)ccc21 (stereo not shown) [Example 139, [7-(1-cyclohexyl methyl-1H-indazol-5-ylmethoxy)-chroman-4-yl]-acetic acid]
4 nM	CC#C[C@@H](CC(=O)O)c1ccc(OCc2cc(C)c3nn(CC(C)C)cc3c2)cc1 [Example 140, (S)-3-[4-(2-isobutyl-7-methyl-2H-indazol-5-ylmethoxy)-phenyl]-hex-4-ynoic acid]
1 to 50 nM	CC#C[C@@H](CC(=O)O)c1ccc(OCc2ccc3c(cnn3Cc3ccccn3)c2)cc1 [Example 141, (S)-3-[4-(1-pyridine-2-ylmethyl-1H-indazol-5-ylmethoxy)-phenyl]-hex-4-ynoic acid]
≥ 500 nM	O=C(O)CC1CCOc2cc(OCc3ccc4c(cnn4Cc4ccccn4)c3)ccc21 (stereo not shown) [Example 142, [7-(1-pyridine-2-ylmethyl-1H-indazol-5-ylmethoxy)-chroman-4-yl]-acetic acid]
1 to 50 nM	CC#C[C@@H](CC(=O)O)c1ccc(OCc2cnc3c(ccn3Cc3ccccc3)c2)cc1 [Example 143, (S)-3-[4-(1-benzyl-1H-pyrrolo[2,3-b]pyridin-5-ylmethoxy)-phenyl]-hex-4-ynoic acid]
1 to 50 nM	CC#C[C@@H](CC(=O)O)c1ccc(OCc2cnc3c(ccn3CC(C)C)c2)cc1 [Example 144, (S)-3-[4-(1-isobutyl-1H-pyrrolo[2,3-b]pyridin-5-ylmethoxy)-phenyl]-hex-4-ynoic acid]
40 nM	Cc1c(COc2ccc3c(c2)OCCC3CC(=O)O)ccc2ccn(Cc3ccccc3)c12 (stereo not shown) [Example 145, [7-(1-benzyl-7-methyl-1H-indol-6-ylmethoxy)-chroman-4-yl]-acetic acid]
1 to 50 nM	CC#C[C@@H](CC(=O)O)c1ccc(OCc2ccc3c(cnn3Cc3cccnc3)c2)cc1 [Example 147, (S)-3-[4-(1-pyridin-3-ylmethyl-1H-indazol-5-ylmethoxy)-phenyl]-hex-4-ynoic acid]
